Experimental data taken from patent US7361643B2, “Methods for inhibiting angiogenesis” (University of Puerto Rico, priority 2000, dated 2008).
Entries after “also recorded” stand apart in the source; their conditions may differ.

Tested on: bovine adrenal medullary microvascular endothelial cells
Test: Morphology by light microscopy and scanning electron microscopy
Format: cell-based
Conditions: 1 μg/ml tunicamycin, 2% (v/v) FBS
Method: The synchronized population of the above described bovine capillary endothelial cells was exposed to tunicamycin (lot number 10922120-07 from Boehringer-Mannheim, Indianapolis, Ind.) with no history of protein synthesis inhibition, for different lengths of time at various concentrations, as shown, e.g., in FIG. 3, in a complete EMEM containing 2% (v/v) fetal bovine serum (FBS) (heat-inactivated) at 37° C. to evaluate the morphological changes. The cells were monitored by phase-contrast light microscopy as well as by scanning electron microscopy.
For scanning electron microscopy, 5×10^3 cells were cultured on 13 mm round Thermanox coverslips in 12 well clusters (COSTAR) in complete EMEM. Cells were synchronized as mentioned above and cultured in EMEM containing either 2% (v/v) FBS (control), 10% (v/v) FBS or 2% (v/v) FBS plus 1 μg/ml tunicamycin. The coverslips were removed at specified times and the cells were fixed in 2.5% (v/v) glutaraldehyde for 30 minutes. The cells were washed three times (10 minutes each) with Millonigs (1961) isotonic phosphate buffer, pH 7.3, and treated with 1% (w/v) osmium tetroxide for 15 minutes. See MILLONIG, “Advantages of a Phosphate Buffer for Osmium Tetroxide Solutions in Fixation”, J. Appl. Physics, 32:1637 (1961), the disclosure of which is herein incorporated by reference in its entirety. […]

Substance: tunicamycin
- morphology by light microscopy: cell shrinkage, loss of membrane contact with neighboring cells, apparent compaction of nuclei showing condensed pyknotic appearance and membrane fragmentation; also recorded: cell shrinkage, loss of membrane contact with neighboring cells, apparent compaction of nuclei showing condensed pyknotic appearance, and membrane fragmentation
- surface morphology by scanning electron microscopy (96 hours): considerable surface blebbing; also recorded: enormous surface blebbing
